Patent publication US8791159B2, “Compound capable of binding S1P receptor and pharmaceutical use thereof” (Ono Pharmaceutical Co., Ltd., priority 2003, dated 2014)
Each block holds one compound with its values, some of them ahead of it.

What was measured:
[1] = target: T1, EDG-6 (Homo sapiens, UniProt O95977); experiment: Inhibitory activity on binding of [3H]-S1P to EDG-6 (EDG-6-overexpressing cells); details: competitive binding test, 5 nM D-erythro-sphingosine-3-[3H]-1-phosphate, 60 minutes on ice
T1 construct: expressed in transfected cells; host or cells: EDG-6-overexpressing cells
T1 sequence (O95977 1-384): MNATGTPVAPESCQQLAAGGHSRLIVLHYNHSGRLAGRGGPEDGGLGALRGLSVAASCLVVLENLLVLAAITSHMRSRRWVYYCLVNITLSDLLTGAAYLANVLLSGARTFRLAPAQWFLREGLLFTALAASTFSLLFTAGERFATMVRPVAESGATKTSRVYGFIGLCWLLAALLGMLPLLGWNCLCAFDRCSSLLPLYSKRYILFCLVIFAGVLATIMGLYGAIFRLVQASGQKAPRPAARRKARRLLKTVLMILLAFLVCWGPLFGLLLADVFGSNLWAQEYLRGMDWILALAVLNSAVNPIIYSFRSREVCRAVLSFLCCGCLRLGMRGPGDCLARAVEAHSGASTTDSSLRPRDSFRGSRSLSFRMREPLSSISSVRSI
Description: Firstly, EDG-6-overexpressing cells were seeded at a density of 2×10^5 cells/well into a 12-well plate. After 12 hours, the cells were washed with 0.5 mL of an assay buffer twice. In a saturation binding test for determining the KD value and the Bmax value, the cells were incubated in 0.4 mL of an assay buffer containing D-erythro-sphingosine-3-[^3H]-1-phosphate at various concentrations and 2 μL of 0.01 N NaOH for 60 minutes on ice. Then, the wells were washed with 0.8 mL of the assay buffer twice and the whole cells were disrupted by adding 0.1 mL of 0.5% TCA (trichloroacetic acid), 0.4 mL of a lysis buffer (2% Na2CO3, 4% NaOH, 0.1% SDS) and 0.1 mL of 1 N hydrochloric acid. Then, 0.5 mL of the lysed solution was collected in a glass vial (Packard) with a pipette. After adding 7 mL of ACSII (Amersham), the mixture was thoroughly stirred and the radioactivity was measured with a liquid scintillation counter (TRI-CARB 2900TR Packard), thereby determining the KD value. The value of the nonspecific binding was determined by adding unlabeled S1P at a final concentration of 25 μM as a substitute for 0.01 N NaOH. […] The subsequent procedures following washing were carried out as in the saturation binding test and the radioactivity was measured as described above.

[2] = target: Human EDG-1 (Homo sapiens, UniProt P21453); experiment: Agonistic activity against EDG by monitoring intracellular calcium ion concentration [Ca2+]i; type: cell-based; details: human EDG-1 overexpressing CHO cells, increase ratio of [Ca2+]i
Sequence of Human EDG-1 (P21453 whole entry): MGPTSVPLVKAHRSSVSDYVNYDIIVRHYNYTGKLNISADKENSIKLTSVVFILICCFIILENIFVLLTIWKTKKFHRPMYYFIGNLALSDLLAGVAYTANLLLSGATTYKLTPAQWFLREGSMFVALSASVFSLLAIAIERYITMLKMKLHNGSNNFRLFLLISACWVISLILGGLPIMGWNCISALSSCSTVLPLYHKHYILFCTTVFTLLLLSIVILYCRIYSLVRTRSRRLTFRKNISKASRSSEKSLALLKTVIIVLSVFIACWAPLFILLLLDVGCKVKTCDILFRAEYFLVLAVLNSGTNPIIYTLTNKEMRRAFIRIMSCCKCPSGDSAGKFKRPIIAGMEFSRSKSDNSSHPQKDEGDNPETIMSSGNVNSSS
Description: Human EDG-1, EDG-3, EDG-5 or EDG-8 gene overexpressing Chinese Hamster Ovary (CHO) cells were cultured in Ham's F12 medium (manufactured by GIBCO BRL) containing 10% FBS (fetal bovine serum), penicillin/streptomycin and blasticidin (5 μg/ml). The cultured cells were incubated in a 5 μM Fura2-AM solution (Ham's F12 medium containing 10% of FBS, 20 mM HEPES buffer (pH7.4) and 2.5 mM probenecid) at 37° C. for 60 minutes. After washing once with Hanks solution containing […] buffer (pH7.4) and 2.5 mM probenecid, the plate was soaked in the same solution until assay. Then, the plate was set on a fluorescent drug screening system (FDSS 6000; Hamamatsu Photonics) and the intracellular calcium ion concentration was measured without stimulation for 30 seconds. A test compound (final concentration: 1 nM to 10 μM, dimethylsulfoxide (DMSO) solution) was added and S1P (final concentration: 100 nM) was added 5 minutes thereafter. Then, the increase in the intracellular calcium ion concentration was measured before and after the addition of S1P at intervals of 3 seconds (excitation wavelength: 340 nm and 380 nm, fluorescence wavelength: 500 nm). […]

[3] = test system: lymphocyte in blood; experiment: Counting the number of lymphocyte in blood (1); type: in vivo, male Sprague-Dawley rats; details: oral, 10, 30 and 100 mg/kg, 4 hours after the administration, rat
Description: Test compounds were orally administered to male Sprague-Dawley rats (Charles Riber Laboratories, Japan, Ltd., 6-week-old at using). Four to 72 hours after the administration, the blood was collected from the aorta abdominalis under ether anesthesia. Using a portion of the thus collected blood, the number of blood cells were counted and the number of lymphocyte, neutrophil and platelet were counted. Each group had 4 or 5 animals.

[4] = after administration; cited from earlier work
[5] = cited from earlier work
[6] = test system: S1P receptor; details: cited from earlier work

- melting point: 162.5 to 163.3 °C
SMILES: CC1=C(CNCCC(=O)O)CCc2cc(OCCCCc3ccccc3)ccc21.Cl

- melting point: 77 to 83 °C
SMILES: CC1=C(CN2CC(C(=O)O)C2)CCc2cc(OCCC(c3ccccc3)c3ccccc3)ccc21.Cl

- melting point: 124 to 127 °C
SMILES: CC1=C(CN2CC(C(=O)O)C2)CCc2cc(OCC(C)(C)Cc3ccccc3)ccc21.Cl

- Ki [1]: 352 nM
- EC50 [2]: 255 nM
SMILES: O=C(O)CCNCCCc1ccc(OCCCCCc2ccccc2)cc1 [3-[3-(4-(5-phenylpentyloxy)phenyl)propylamino]propanoic acid]
- number of lymphocyte in blood [3]: concentration-dependently lowered the number of lymphocyte in blood

SMILES: CCCCCCCCc1ccc(CCC(N)(CO)CO)cc1.Cl [FTY720, 2-amino-2-[2-(4-octylphenyl)ethyl]-1,3-propanediol hydrochloride]
- side effect (bradycardia) [4]: causing bradycardia after administration
- incidence rate of acute rejection ([5]; human kidney transplantation): significantly lowering the incidence rate of acute rejection
- lymphocyte count in the peripheral blood ([5]; human, in vivo): reducing the lymphocyte count in the peripheral blood

SMILES: CCCCCCCCc1ccc(CCC(N)(CO)COP(=O)(O)O)cc1 (stereo not shown) [phosphorylated FTY720]
- binding to S1P receptor subtypes [6]: binds to multiple subtypes of the S1P receptors, i.e., EDG-1, EDG-3, EDG-6 and EDG-8
